Source: ChEMBL document CHEMBL1201862, “PubChem BioAssay data set” (2004)
The source made the active and inactive calls.

Each molecule was assayed against T1, Caspase-3 (Homo sapiens, UniProt P42574).
T1 sequence (P42574 whole entry): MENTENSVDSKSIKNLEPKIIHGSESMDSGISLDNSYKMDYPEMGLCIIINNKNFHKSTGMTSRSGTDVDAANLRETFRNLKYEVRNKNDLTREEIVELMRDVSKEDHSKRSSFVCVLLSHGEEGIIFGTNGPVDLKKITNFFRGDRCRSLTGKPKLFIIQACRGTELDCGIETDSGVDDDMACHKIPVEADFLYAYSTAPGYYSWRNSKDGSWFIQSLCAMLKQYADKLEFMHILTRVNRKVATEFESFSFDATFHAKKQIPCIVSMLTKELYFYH
Format: functional

Question: How did the IC50 turn out when `O=C(NC1=C(Nc2ccc(F)cc2)C(=O)c2ccccc2C1=O)c1ccc(Cl)cc1` was run?
Answer: Its IC50 is 19 µM (active).

Question: With `Oc1nc(Nc2ccc(F)cc2)cc2ccccc12` as the molecule, how does the IC50 read?
Answer: The IC50 was 4.77 µM (active).

Question: For `CN(C)c1cc(N/N=C\c2ccccc2)nc(N(C)C)n1`, which IC50 is on record?
Answer: Its IC50 is > 100 µM (inactive).

These molecules were tested against T2, Apoptotic protease-activating factor 1 (Homo sapiens, UniProt O14727).
T2 sequence (O14727 whole entry): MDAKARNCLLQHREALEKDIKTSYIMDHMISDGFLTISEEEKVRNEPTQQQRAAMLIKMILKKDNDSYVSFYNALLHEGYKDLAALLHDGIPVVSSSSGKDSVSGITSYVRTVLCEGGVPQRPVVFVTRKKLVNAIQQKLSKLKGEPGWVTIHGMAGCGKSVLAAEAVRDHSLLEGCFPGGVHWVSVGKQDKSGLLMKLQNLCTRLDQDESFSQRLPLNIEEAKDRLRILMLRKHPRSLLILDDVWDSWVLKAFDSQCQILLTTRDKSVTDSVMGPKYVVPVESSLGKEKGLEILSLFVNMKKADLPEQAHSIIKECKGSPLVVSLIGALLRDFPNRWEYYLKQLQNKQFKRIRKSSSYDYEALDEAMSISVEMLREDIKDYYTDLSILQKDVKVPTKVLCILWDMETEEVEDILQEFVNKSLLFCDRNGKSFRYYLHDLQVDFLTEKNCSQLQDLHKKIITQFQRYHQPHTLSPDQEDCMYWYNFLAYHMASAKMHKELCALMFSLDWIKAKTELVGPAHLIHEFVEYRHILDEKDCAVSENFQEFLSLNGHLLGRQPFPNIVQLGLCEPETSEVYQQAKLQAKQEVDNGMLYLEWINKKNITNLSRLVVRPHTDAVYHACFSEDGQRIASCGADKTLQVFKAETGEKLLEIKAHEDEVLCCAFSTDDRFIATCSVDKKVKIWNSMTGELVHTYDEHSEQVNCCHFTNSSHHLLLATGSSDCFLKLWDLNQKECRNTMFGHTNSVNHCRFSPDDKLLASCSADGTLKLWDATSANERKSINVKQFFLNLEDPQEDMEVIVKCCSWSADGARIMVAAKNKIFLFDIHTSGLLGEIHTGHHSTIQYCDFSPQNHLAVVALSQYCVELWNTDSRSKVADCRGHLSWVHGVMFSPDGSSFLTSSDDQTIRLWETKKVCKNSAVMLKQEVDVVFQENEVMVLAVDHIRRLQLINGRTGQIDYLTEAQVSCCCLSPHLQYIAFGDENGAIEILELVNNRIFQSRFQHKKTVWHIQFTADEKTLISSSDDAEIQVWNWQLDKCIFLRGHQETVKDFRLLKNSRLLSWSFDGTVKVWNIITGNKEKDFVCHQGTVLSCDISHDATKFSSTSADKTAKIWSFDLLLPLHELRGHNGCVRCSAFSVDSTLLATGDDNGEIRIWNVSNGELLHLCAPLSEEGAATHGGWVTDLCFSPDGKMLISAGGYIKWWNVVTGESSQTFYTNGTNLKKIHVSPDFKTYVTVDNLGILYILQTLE
Format: functional

Question: Which IC50 does the source give for `CCN(CC)CCOc1ccc2c(c1)C(=NNC(=O)c1ccccn1)c1cc(OCCN(CC)CC)ccc1-2` here?
Answer: Its IC50 is 10.2 µM (active).

Question: How did the IC50 turn out when `O=C(NC1=C(Nc2ccc(F)cc2)C(=O)c2ccccc2C1=O)c1ccc(Cl)cc1` was run?
Answer: Its IC50 is 16.2 µM (active).

Question: With `COc1cc2cc(NC(C)=O)cc(NCc3ccccc3)c2cc1OC` as the molecule, how does the IC50 read?
Answer: The IC50 was 20.7 µM (active).

Question: `Oc1nc(Nc2ccc(F)cc2)cc2ccccc12` was tested. Which IC50 did it give?
Answer: Its IC50 is 3.76 µM (active).

Question: How did the IC50 turn out when `CN(C)c1cc(N/N=C\c2ccccc2)nc(N(C)C)n1` was run?
Answer: Its IC50 is 1.1 µM (active).

The molecules below were run against 5'-AMP-activated protein kinase catalytic subunit alpha-1 (Homo sapiens, UniProt Q13131).
5'-AMP-activated protein kinase catalytic subunit alpha-1, sequence (Q13131 whole entry): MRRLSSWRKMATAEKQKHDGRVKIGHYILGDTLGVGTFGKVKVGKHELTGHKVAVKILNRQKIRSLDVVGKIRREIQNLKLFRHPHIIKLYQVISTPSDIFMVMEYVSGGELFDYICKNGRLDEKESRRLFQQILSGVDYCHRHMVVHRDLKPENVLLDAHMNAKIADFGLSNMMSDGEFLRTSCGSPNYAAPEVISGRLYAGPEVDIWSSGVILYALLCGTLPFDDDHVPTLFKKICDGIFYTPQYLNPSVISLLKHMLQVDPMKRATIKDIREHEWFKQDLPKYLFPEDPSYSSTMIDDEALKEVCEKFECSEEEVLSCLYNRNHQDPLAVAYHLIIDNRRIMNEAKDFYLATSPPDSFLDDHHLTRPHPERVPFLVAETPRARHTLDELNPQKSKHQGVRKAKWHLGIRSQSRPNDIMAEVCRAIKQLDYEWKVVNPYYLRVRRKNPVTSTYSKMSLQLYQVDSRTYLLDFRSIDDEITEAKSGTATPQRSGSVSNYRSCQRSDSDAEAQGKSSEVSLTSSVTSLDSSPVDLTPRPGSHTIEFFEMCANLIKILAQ
Format: functional

Question: `O=C1Nc2cc(-c3ccc(O)cc3)ccc2C1=Cc1ccc[nH]1` was tested. Which Ki did it give?
Answer: Its Ki is 158 nM (active).

Question: For `NC(COc1cncc(-c2ccc3c(c2)C(=Cc2ccc[nH]2)C(=O)N3)c1)Cc1ccccc1` (stereo unspecified), which Ki is on record?
Answer: Its Ki is 3.16 nM (active).

Question: `O=C1Cc2cc(-c3ccccc3)cnc2N1` was tested. Which Ki did it give?
Answer: The Ki was 50100 nM (active).

What follows are molecules tested against Death-associated protein kinase 3 (Homo sapiens, UniProt O43293).
Death-associated protein kinase 3, sequence (O43293 whole entry): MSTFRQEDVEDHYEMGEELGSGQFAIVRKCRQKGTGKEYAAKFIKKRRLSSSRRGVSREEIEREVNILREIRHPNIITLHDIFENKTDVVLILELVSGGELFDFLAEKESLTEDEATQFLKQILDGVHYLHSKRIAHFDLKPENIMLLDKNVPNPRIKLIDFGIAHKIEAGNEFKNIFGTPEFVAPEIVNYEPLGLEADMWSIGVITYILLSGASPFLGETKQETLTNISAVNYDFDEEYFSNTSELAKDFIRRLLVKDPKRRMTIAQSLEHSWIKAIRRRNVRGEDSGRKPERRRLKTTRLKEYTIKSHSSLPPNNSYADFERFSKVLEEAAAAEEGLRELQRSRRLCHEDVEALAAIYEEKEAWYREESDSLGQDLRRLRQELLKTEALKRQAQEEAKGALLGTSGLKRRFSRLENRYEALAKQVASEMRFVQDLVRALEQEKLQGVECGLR
Format: functional

Question: `O=C1Nc2cc(-c3ccc(O)cc3)ccc2C1=Cc1ccc[nH]1` was tested. Which Ki did it give?
Answer: Its Ki is 7.94 nM (active).

Question: With `NC(COc1cncc(-c2ccc3c(c2)C(=Cc2ccc[nH]2)C(=O)N3)c1)Cc1ccccc1` (stereo unspecified) as the molecule, how does the Ki read?
Answer: The Ki was 5.01 nM (active).

Question: `O=C1Cc2cc(-c3ccccc3)cnc2N1` was tested. Which Ki did it give?
Answer: The Ki was 39800 nM (active).

The molecules below were run against Glycogen synthase kinase-3 alpha (Homo sapiens, UniProt P49840).
Glycogen synthase kinase-3 alpha, sequence (P49840 whole entry): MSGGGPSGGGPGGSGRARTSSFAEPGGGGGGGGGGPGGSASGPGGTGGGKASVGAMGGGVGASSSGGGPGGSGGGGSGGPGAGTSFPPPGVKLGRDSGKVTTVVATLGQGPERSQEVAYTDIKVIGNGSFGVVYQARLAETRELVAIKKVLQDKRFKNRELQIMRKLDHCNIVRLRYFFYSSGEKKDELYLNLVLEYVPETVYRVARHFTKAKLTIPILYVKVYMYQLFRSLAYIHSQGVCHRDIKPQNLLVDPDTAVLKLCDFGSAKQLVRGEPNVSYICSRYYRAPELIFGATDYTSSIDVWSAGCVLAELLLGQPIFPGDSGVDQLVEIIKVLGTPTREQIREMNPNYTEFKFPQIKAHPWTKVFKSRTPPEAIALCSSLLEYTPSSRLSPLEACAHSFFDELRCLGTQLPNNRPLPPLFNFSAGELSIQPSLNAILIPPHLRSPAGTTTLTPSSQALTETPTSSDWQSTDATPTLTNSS
Format: functional

Question: How did the Ki turn out when `O=C1Nc2cc(-c3ccc(O)cc3)ccc2C1=Cc1ccc[nH]1` was run?
Answer: Its Ki is 631 nM (active).

Question: How did the Ki turn out when `NC(COc1cncc(-c2ccc3c(c2)C(=Cc2ccc[nH]2)C(=O)N3)c1)Cc1ccccc1` (stereo unspecified) was run?
Answer: The Ki was 1.26 nM (active).

Question: Which Ki does the source give for `O=C1Cc2cc(-c3ccccc3)cnc2N1` here?
Answer: The Ki was 15800 nM (active).

What follows are molecules tested against T3, Receptor-type tyrosine-protein kinase FLT3 (Homo sapiens, UniProt P36888).
T3 sequence (P36888 whole entry): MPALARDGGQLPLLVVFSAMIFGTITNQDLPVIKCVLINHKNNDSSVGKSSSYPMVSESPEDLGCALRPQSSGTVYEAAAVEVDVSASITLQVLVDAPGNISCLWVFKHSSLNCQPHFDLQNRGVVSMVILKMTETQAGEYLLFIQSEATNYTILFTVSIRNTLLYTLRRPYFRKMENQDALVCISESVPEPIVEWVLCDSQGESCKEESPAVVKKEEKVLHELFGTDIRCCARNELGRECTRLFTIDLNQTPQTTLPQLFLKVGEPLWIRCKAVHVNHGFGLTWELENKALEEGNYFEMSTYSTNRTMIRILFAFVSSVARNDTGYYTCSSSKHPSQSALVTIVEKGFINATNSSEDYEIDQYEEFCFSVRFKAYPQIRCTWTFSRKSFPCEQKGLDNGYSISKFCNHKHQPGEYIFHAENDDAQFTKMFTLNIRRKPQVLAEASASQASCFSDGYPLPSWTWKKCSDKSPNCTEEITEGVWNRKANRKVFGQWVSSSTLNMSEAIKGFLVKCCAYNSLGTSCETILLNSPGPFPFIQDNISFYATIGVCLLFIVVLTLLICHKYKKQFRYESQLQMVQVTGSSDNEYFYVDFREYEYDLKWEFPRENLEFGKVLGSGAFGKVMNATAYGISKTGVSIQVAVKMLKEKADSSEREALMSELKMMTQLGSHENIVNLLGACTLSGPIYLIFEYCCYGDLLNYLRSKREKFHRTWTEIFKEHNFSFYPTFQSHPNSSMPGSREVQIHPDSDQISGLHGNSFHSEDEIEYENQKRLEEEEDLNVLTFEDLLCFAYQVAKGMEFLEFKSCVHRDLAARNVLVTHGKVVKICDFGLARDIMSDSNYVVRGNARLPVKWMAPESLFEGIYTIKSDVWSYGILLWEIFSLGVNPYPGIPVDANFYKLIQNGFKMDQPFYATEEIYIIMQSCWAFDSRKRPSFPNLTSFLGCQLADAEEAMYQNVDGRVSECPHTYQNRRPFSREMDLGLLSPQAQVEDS
Format: functional

Question: `O=C1Nc2cc(-c3ccc(O)cc3)ccc2C1=Cc1ccc[nH]1` was tested. Which Ki did it give?
Answer: Its Ki is > 3.16 µM (inactive).

Question: Which Ki does the source give for `NC(COc1cncc(-c2ccc3c(c2)C(=Cc2ccc[nH]2)C(=O)N3)c1)Cc1ccccc1` (stereo unspecified) here?
Answer: Its Ki is 0.0251 µM (active).

Question: `O=C1Cc2cc(-c3ccccc3)cnc2N1` was tested. Which Ki did it give?
Answer: Its Ki is 79.4 µM (active).

The molecules below were run against Dual specificity protein kinase CLK4 (Homo sapiens, UniProt Q9HAZ1).
Dual specificity protein kinase CLK4, sequence (Q9HAZ1 whole entry): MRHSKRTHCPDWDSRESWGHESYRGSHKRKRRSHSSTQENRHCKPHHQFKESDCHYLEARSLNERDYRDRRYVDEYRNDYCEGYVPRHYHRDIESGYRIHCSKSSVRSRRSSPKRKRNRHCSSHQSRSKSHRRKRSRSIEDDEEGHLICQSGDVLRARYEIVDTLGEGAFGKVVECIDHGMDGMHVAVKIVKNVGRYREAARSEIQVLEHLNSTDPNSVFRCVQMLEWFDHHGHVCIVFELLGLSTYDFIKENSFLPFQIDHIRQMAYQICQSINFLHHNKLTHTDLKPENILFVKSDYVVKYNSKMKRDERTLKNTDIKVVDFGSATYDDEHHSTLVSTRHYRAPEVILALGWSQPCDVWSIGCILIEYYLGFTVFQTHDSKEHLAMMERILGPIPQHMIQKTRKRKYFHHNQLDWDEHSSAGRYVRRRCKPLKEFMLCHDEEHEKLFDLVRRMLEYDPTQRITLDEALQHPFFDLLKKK
Format: functional

Question: How did the Ki turn out when `O=C1Nc2cc(-c3ccc(O)cc3)ccc2C1=Cc1ccc[nH]1` was run?
Answer: The Ki was 1.26 µM (active).

Question: Which Ki does the source give for `NC(COc1cncc(-c2ccc3c(c2)C(=Cc2ccc[nH]2)C(=O)N3)c1)Cc1ccccc1` (stereo unspecified) here?
Answer: Its Ki is 0.000316 µM (active).

Question: How did the Ki turn out when `O=C1Cc2cc(-c3ccccc3)cnc2N1` was run?
Answer: The Ki was 6.31 µM (active).

Each molecule was assayed against Leukocyte tyrosine kinase receptor (Homo sapiens, UniProt P29376) (assay: Navigating the Kinome. Panel member name: LTK).
Leukocyte tyrosine kinase receptor, sequence (P29376 whole entry): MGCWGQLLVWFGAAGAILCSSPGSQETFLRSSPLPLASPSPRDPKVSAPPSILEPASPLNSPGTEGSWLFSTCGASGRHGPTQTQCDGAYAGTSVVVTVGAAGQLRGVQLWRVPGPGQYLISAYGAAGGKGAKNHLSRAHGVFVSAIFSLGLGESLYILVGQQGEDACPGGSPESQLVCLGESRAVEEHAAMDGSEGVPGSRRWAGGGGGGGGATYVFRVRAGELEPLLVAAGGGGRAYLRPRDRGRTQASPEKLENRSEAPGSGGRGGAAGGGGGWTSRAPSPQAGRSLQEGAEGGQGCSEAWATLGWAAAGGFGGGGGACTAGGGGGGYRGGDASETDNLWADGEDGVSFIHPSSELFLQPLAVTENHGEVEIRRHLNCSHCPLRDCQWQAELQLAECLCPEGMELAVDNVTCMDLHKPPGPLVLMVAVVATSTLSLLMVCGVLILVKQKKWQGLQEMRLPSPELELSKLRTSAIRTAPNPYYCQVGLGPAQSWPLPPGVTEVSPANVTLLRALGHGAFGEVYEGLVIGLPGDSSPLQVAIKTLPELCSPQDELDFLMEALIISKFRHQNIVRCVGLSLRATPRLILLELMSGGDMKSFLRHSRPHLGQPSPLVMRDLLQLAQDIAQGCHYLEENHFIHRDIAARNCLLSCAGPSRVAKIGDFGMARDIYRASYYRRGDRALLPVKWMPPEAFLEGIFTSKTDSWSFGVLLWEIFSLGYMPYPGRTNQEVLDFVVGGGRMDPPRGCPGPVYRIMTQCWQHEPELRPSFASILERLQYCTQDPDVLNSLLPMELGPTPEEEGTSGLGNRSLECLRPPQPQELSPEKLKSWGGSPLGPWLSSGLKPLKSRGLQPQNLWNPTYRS
Format: functional

Question: For `O=C1Nc2cc(-c3ccc(O)cc3)ccc2C1=Cc1ccc[nH]1`, which Ki is on record?
Answer: Its Ki is 3.98 nM (active).

Question: For `NC(COc1cncc(-c2ccc3c(c2)C(=Cc2ccc[nH]2)C(=O)N3)c1)Cc1ccccc1` (stereo unspecified), which Ki is on record?
Answer: Its Ki is 126 nM (active).

Question: For `O=C1Cc2cc(-c3ccccc3)cnc2N1`, which Ki is on record?
Answer: Its Ki is 15800 nM (active).
